# Test results as given in patent US11365196B2, “FGFR inhibitor and application thereof” (Betta Pharmaceuticals Co., Ltd., priority 2017, dated 2022).
# Where two headings read alike, the source gives them in different places.
# Tests used:
# SNU-16 cells = assay: Cell proliferation assay on SNU-16, CellTiter Glo (Table 8); type: cell-based, human; settings: 96 hrs, class symbols, read-out: IC50(nM) value of compounds on SNU-16 cells
# Text: (§1) Test method: adding the appropriate volume of whole medium and the cells was suspended.
# [1] = system: SNU-16 (human gastric cancer cell); assay: Cell proliferation assay, CellTiter Glo (Table 9); type: cell-based
# Procedure: (§5) Test method: 100 μl of the cell suspension was added to a 96-well plate and placed in a CO2 incubator overnight. Test compounds were dissolved in DMSO and subjected to a 3-fold gradient dilution for a total of 10 concentrations. The test compound or DMSO was transferred to the corresponding cell wells respectively and was incubated for 96 hrs in 5% CO2 at 37° C. 100 μl of CellTiter-Glo reagent was added to the assay plate and incubated for 10 min at room temperature to stabilize the luminescence signal. The IC50 value was calculated by recording the RLU (relative luminescence unit) using Enspire.
# [2] = system: MFE-296 (human endometrial cancer cells); assay: Cell proliferation assay, CellTiter Glo (Table 9); type: cell-based; settings: WIFE-296 [sic]
# Procedure: as §5
# [3] = system: JHH-7 (human hepatoma cell); assay: Cell proliferation assay, CellTiter Glo (Table 9); type: cell-based
# Procedure: as §5
# [4] = system: NCI-H1581 (human non-small cell lung cancer cells); assay: Cell proliferation assay, CellTiter Glo (Table 9); type: cell-based
# Procedure: as §5
# [5] = system: RT4 (human bladder cancer cell); assay: Cell proliferation assay, CellTiter Glo (Table 9); type: cell-based; settings: 96 hrs
# Procedure: as §5
# NCI-H1581 cells = assay: Cell proliferation assay on NCI-H1581 (Table 7); type: cell-based, human
# Text: as §1
# [6] = system: MDA-MB-453 (human breast cancer cell); assay: Cell proliferation assay, CellTiter Glo (Table 9); type: cell-based
# Procedure: as §5
# [7] = system: NCI-H716 (human colorectal cancer cell); assay: Cell proliferation assay, CellTiter Glo (Table 9); type: cell-based
# Procedure: as §5
# [8] = system: DMS 114 (human lung cancer cell); assay: Cell proliferation assay, CellTiter Glo (Table 9); type: cell-based
# Procedure: as §5
# [9] = system: RT-112 (human bladder cancer cell); assay: Cell proliferation assay, CellTiter Glo (Table 9); type: cell-based
# Procedure: as §5
# [10] = system: OPM-2 (human myeloma cell); assay: Cell proliferation assay, CellTiter Glo (Table 9); type: cell-based
# Procedure: as §5
# FGFR4 [11] = biological target: T1, FGFR4 (Homo sapiens (Human), UniProt P22455); assay: Kinase assay Method 2, isotope-labeled 33P-ATP method; type: biochemical; settings: ATP at Km, filter-binding, read-out: IC50(nM) value of compounds, FGFR4
# T1 sequence (P22455 22-802): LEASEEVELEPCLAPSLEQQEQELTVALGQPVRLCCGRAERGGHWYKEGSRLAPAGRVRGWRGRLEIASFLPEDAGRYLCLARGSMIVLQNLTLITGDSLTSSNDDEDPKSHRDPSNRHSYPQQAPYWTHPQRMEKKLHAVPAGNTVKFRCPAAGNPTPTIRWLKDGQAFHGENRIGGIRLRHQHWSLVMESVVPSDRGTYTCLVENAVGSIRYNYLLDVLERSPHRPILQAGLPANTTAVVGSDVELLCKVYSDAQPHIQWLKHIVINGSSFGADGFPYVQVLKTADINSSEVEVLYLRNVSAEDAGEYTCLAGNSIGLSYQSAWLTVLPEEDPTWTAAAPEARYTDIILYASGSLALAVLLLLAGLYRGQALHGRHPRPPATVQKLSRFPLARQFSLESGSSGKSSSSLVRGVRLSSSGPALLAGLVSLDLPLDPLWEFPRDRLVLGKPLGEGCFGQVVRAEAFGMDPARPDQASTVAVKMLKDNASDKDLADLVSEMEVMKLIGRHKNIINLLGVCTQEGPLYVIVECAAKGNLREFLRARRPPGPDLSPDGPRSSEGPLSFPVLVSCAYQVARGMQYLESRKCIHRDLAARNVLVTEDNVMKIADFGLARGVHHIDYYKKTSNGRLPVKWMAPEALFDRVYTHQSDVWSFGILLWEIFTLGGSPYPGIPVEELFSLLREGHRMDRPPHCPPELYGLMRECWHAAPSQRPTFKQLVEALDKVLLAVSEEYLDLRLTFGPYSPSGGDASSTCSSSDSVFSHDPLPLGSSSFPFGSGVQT
# Procedure: (§2) Reagent: basic kinase buffer: 20 mM Hepes (pH 7.5), 10 mM MgCl2, 1 mM EGTA, 0.02% Brij35, 0.02 mg/mL BSA, 0.1 mM Na3VO4, 2 mM DTT, 1% DMSO
# (§3) Adding the corresponding coenzyme factor to each kinase reaction
# (§4) Reaction process: 1) formulating the substrate in freshly configured reaction buffer • 2) adding the required coenzyme factor to the above substrate solution • 3) adding kinase to the substrate solution and mixing gently • 4) adding the compounds dissolved in 100% DMSO to the above kinase reaction mixture, mixed well and incubating for 20 min at room temperature • 5) adding ^33P-ATP (specific activity 10 μCi/μL) to the reaction mixture to initiate the reaction and incubating for 2 h at room temperature • 6) detection of kinase activity by filter-binding The experiment data is shown in table 6: […]
# FGFR3 = FGFR3 (Homo sapiens (Human), UniProt P22607); assay: as above; type: biochemical; settings: ATP at Km, filter-binding, read-out: IC50(nM) value of compounds, FGFR3
# FGFR3, sequence (P22607 23-806): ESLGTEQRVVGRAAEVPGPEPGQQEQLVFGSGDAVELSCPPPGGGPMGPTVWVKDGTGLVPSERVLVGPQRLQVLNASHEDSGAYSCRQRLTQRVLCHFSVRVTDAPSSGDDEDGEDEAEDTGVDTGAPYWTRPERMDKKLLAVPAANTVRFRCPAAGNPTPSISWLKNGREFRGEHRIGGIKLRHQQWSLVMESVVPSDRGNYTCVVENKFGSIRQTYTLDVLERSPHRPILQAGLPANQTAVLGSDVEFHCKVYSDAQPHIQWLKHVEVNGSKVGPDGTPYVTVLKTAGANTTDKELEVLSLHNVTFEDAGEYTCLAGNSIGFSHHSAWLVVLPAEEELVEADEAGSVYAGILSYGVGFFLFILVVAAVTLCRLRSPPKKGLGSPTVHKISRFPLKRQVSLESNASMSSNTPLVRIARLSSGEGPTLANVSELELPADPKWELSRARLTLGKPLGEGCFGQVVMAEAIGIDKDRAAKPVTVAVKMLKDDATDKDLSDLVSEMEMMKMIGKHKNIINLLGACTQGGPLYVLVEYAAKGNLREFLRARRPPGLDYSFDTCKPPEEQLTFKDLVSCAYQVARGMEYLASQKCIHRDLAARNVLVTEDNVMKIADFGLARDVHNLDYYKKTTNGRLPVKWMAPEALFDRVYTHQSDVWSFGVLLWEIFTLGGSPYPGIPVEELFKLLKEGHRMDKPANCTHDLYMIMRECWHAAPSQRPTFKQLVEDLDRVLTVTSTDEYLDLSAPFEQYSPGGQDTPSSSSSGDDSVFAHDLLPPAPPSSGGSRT
# Procedure: as §2, §3, §4
# FGFR2 = FGFR2 (Homo sapiens (Human), UniProt P21802); assay: as above; type: biochemical; settings: ATP at Km, filter-binding, read-out: IC50(nM) value of compounds, FGFR2
# FGFR2, sequence (P21802 22-821): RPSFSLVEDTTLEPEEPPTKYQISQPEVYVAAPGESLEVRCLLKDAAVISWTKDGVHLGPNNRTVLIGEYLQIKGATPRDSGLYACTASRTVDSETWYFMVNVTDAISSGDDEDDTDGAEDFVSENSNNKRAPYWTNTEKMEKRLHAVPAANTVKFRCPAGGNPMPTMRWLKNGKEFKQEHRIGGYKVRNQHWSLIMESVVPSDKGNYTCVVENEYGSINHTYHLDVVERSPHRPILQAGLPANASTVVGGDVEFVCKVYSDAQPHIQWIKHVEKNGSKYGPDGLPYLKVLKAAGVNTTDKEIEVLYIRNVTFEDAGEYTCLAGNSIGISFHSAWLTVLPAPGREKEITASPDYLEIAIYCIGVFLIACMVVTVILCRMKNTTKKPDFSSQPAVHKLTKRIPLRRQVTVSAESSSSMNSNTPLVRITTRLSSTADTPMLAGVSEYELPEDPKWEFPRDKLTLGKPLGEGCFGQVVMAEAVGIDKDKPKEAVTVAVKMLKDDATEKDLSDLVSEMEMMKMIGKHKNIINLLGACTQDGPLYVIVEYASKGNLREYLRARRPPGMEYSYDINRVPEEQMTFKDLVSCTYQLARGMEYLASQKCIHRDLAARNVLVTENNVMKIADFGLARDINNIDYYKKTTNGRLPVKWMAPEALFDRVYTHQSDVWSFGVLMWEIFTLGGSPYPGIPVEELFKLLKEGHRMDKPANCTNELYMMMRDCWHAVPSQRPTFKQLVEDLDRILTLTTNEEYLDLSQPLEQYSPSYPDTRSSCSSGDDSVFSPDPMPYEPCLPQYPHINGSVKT
# Procedure: as §2, §3, §4
# FGFR4 [12] = biological target: T1, FGFR4; assay: Kinase assay Method 1, mobility shift assay; type: biochemical; settings: ATP at Km, numeric values, read-out: IC50(nM) value of compounds FGFR4
# [13] = system: cell lines with abnormal changes in FGFR signaling pathway; assay: cells; settings: Homo sapiens, read-out: IC50 value
# Procedure: Test method: 100 μl of the cell suspension was added to a 96-well plate and placed in a CO2 incubator overnight. […] The test compound or DMSO was transferred to the corresponding cell wells respectively and was incubated for 96 hrs in 5% CO2 at 37° C. 100 μl of CellTiter-Glo reagent was added to the assay plate and incubated for 10 min at room temperature to stabilize the luminescence signal. The IC50 value was calculated by recording the RLU (relative luminescence unit) using Enspire.
# [14] = Homo sapiens, NCI-H1581, 96 hrs
# [15] = Homo sapiens, MDA-MB-453, 96 hrs
SMILES,"IC50 ([1]; Homo sapiens, SNU-16, 96 hrs) [nM]","IC50 ([2]; Homo sapiens, MFE-296, 96 hrs) [nM]","IC50 ([3]; Homo sapiens, JHH7, 96 hrs) [nM]","IC50 [4, 14] [nM]",IC50 ([5]; Homo sapiens) [nM],"IC50 [6, 15] [nM]","IC50 ([7]; Homo sapiens, NCI-H716, 96 hrs) [nM]","IC50 ([8]; Homo sapiens, DMS-114, 96 hrs) [nM]","IC50 ([9]; Homo sapiens, RT-112, 96 hrs) [nM]","IC50 ([10]; Homo sapiens, OPM-2, 96 hrs) [nM]",other results
COc1cc(OC)cc(N(CCNC(C)C)c2ccc3ncc(-c4cnn(C)c4)nc3c2)c1 [JNJ42756493],,,,,,,,,,,"IC50 (SNU-16 cells): < 1 nM; IC50 ([1]; 96 hrs): 1.2 nM; IC50 ([2]; 96 hrs): 16.7 nM; IC50 ([3]; 96 hrs): 3.8 nM; IC50 ([4]; 96 hrs): 1.5 nM; IC50 [5]: 2.4 nM; IC50 (NCI-H1581 cells; CellTiter 96 AQueous (144 hrs) or CellTiter Glo (96 hrs), numeric values, read-out: IC50(nM) value of compounds on NCI-H1581 cells): 0.5 nM; IC50 ([6]; 96 hrs): 11 nM; IC50 ([7]; 96 hrs): 0.6 nM; IC50 ([8]; 96 hrs): 14.8 nM; IC50 ([9]; 96 hrs): 0.8 nM; IC50 ([10]; 96 hrs): 2.5 nM"
"CCN1CCN(c2ccc(Nc3cc(N(C)C(=O)Nc4c(Cl)c(OC)cc(OC)c4Cl)ncn3)cc2)CC1 [BGJ398, Infigratinib]",9.5,51.4,54.1,18.2,16.9,544,4.6,33.6,4.4,18,"IC50 (NCI-H1581 cells; Homo sapiens, NCI-H1581, CellTiter 96 AQueous (144 hrs) or CellTiter Glo (96 hrs), numeric values, read-out: IC50(nM) value of compounds on NCI-H1581 cells): 3.4 nM"
"CCN1CCN(c2ccc(Nc3ncc4cc(-c5cc(OC)cc(OC)c5Cl)c5nncn5c4n3)cc2)CC1 [Compound 4, 6-(2-chloro-3,5-dimethoxyphenyl)-N-(4-(4-ethylpiperazin-1-yl)phenyl)-[1,2,4]triazolo[4′,3′:1,6]pyrido[2,3-d]pyrimidin-2-amine]",1.1,2.7,6.6,1.2,1.9,61.3,0.5,7.4,1,4,"IC50 (FGFR4 [11]): 5.06 nM; IC50 (FGFR3): 1.34 nM; IC50 (FGFR2): 0.16 nM; IC50 (FGFR4 [12]): 27 nM; IC50 [13]: 0.5 to 2.7 nM; IC50 (NCI-H1581 cells; Homo sapiens, NCI-H1581, read-out: IC50(nM) value of compounds on NCI-H1581 cells): 0.4 nM"
